Experimental data from the NIST ThermoML archive (doi:10.1016/j.jct.2017.11.017).
± gives the expanded uncertainty stated by the source.

Assay: activity coefficient (dimensionless); of the first substance listed, at infinite dilution; xn = mol fraction of the nth substance listed
Conditions: 101.33 kPa, Liquid, Chromatography, x1 = 0

| Structure (SMILES) | activity coefficient (318.15 K) | activity coefficient (328.15 K) | activity coefficient (338.15 K) | activity coefficient (348.15 K) | activity coefficient (358.15 K) | activity coefficient (368.15 K) | activity coefficient (298.15 K) | activity coefficient (308.15 K) |
| --- | --- | --- | --- | --- | --- | --- | --- | --- |
| CCOC(C)(C)C [2-ethoxy-2-methylpropane] + C[n+]1ccn(CCCO)c1.N#CN=C=[N-] | 78.5 ± 5.4 | 76.2 ± 5.2 | 74.5 ± 5.1 | 73.1 ± 5 | 72.1 ± 4.9 | 70.5 ± 4.8 | – | – |
| CCOC(C)(C)C [2-ethoxy-2-methylpropane] + C[N+]1(CCCO)CCOCC1.N#C[N-]C#N | 227 ± 16 | 191 ± 13 | – | – | – | – | 339 ± 23 | 275 ± 19 |
| C=CCCCCCCCC [1-decene] + C[n+]1ccn(CCCO)c1.N#CN=C=[N-] | 764 ± 53 | 710 ± 49 | 662 ± 46 | 627 ± 43 | 590 ± 41 | – | 879 ± 61 | 819 ± 56 |
| C=Cc1ccccc1 [styrene] + C[N+]1(CCCO)CCOCC1.N#C[N-]C#N | 9.96 ± 0.68 | 10.3 ± 0.7 | 10.5 ± 0.7 | 10.8 ± 0.7 | 11 ± 0.8 | 11.3 ± 0.8 | – | – |
| CCCOCCC [dipropyl ether] + C[n+]1ccn(CCCO)c1.N#CN=C=[N-] | 82.3 ± 5.6 | 79.9 ± 5.5 | 77.7 ± 5.3 | 75.8 ± 5.2 | 74.4 ± 5.1 | 72.5 ± 5 | – | – |
| c1ccsc1 [thiophene] + C[N+]1(CCCO)CCOCC1.N#C[N-]C#N | 3.23 ± 0.22 | 3.37 ± 0.23 | 3.51 ± 0.24 | 3.64 ± 0.25 | 3.77 ± 0.26 | 3.9 ± 0.27 | – | – |
| c1ccsc1 [thiophene] + C[n+]1ccn(CCCO)c1.N#CN=C=[N-] | 2.44 ± 0.17 | 2.57 ± 0.17 | 2.69 ± 0.18 | 2.82 ± 0.19 | 2.95 ± 0.2 | 3.07 ± 0.21 | – | – |
| CCc1ccccc1 [ethylbenzene] + C[N+]1(CCCO)CCOCC1.N#C[N-]C#N | 26.4 ± 1.8 | 26.3 ± 1.8 | 26.3 ± 1.8 | 26.2 ± 1.8 | 26.2 ± 1.8 | 26.2 ± 1.8 | – | – |
| CC(C)CC(C)(C)C [2,2,4-trimethylpentane] + C[n+]1ccn(CCCO)c1.N#CN=C=[N-] | 579 ± 40 | 509 ± 35 | – | – | – | – | 767 ± 53 | 662 ± 46 |
| Cc1ccccc1C [1,2-dimethylbenzene] + C[n+]1ccn(CCCO)c1.N#CN=C=[N-] | 10.9 ± 0.7 | 11.3 ± 0.8 | 11.7 ± 0.8 | 12 ± 0.8 | 12.5 ± 0.9 | 12.8 ± 0.9 | – | – |
| COC(C)=O [methyl ethanoate] + C[N+]1(CCCO)CCOCC1.N#C[N-]C#N | 4.31 ± 0.29 | 4.41 ± 0.3 | 4.54 ± 0.31 | 4.64 ± 0.32 | 4.77 ± 0.33 | 4.89 ± 0.33 | – | – |
| C1CCCCC1 [cyclohexane] + C[n+]1ccn(CCCO)c1.N#CN=C=[N-] | 97.9 ± 6.7 | 91.1 ± 6.2 | 85.5 ± 5.9 | 80.4 ± 5.5 | 76.6 ± 5.2 | – | 115 ± 8 | 105 ± 7 |
| CCCC(C)=O [pentan-2-one] + C[N+]1(CCCO)CCOCC1.N#C[N-]C#N | 7.85 ± 0.54 | 7.96 ± 0.54 | 8.1 ± 0.55 | 8.23 ± 0.56 | 8.33 ± 0.57 | 8.44 ± 0.58 | – | – |
| CCCO [propan-1-ol] + C[n+]1ccn(CCCO)c1.N#CN=C=[N-] | 1.77 ± 0.12 | 1.76 ± 0.12 | 1.76 ± 0.12 | 1.76 ± 0.12 | 1.77 ± 0.12 | 1.78 ± 0.12 | – | – |
| C1CCCCCC1 [cycloheptane] + C[N+]1(CCCO)CCOCC1.N#C[N-]C#N | 341 ± 23 | 297 ± 20 | 260 ± 18 | 230 ± 16 | 206 ± 14 | 185 ± 13 | – | 391 ± 27 |
| CCCCCO [pentan-1-ol] + C[N+]1(CCCO)CCOCC1.N#C[N-]C#N | 7.75 ± 0.53 | 7.49 ± 0.51 | 7.26 ± 0.5 | 7.11 ± 0.48 | 6.88 ± 0.47 | 6.76 ± 0.46 | – | – |
| Cc1ccc(C)cc1 [1,4-dimethylbenzene] + C[n+]1ccn(CCCO)c1.N#CN=C=[N-] | 13.5 ± 0.9 | 13.9 ± 1 | 14.3 ± 1 | 14.7 ± 1 | 15.1 ± 1 | 15.5 ± 1.1 | – | – |
| CC(C)OC(C)C [diisopropyl ether] + C[N+]1(CCCO)CCOCC1.N#C[N-]C#N | 244 ± 17 | – | – | – | – | – | 393 ± 27 | 306 ± 21 |
| CC(C)(C)O [2-methylpropan-2-ol] + C[N+]1(CCCO)CCOCC1.N#C[N-]C#N | 4.35 ± 0.3 | 4.27 ± 0.29 | 4.21 ± 0.29 | 4.17 ± 0.28 | 4.14 ± 0.28 | 4.09 ± 0.28 | – | – |
| CCOCC [diethyl ether] + C[n+]1ccn(CCCO)c1.N#CN=C=[N-] | 20.3 ± 1.4 | 20.3 ± 1.4 | 20.5 ± 1.4 | 20.6 ± 1.4 | 20.7 ± 1.4 | 20.8 ± 1.4 | – | – |
| c1ccncc1 [pyridine] + C[n+]1ccn(CCCO)c1.N#CN=C=[N-] | 1.33 ± 0.09 | 1.41 ± 0.09 | 1.5 ± 0.1 | 1.58 ± 0.1 | 1.67 ± 0.11 | 1.75 ± 0.12 | – | – |
| CCC(=O)OC [methyl propanoate] + C[N+]1(CCCO)CCOCC1.N#C[N-]C#N | 8.18 ± 0.56 | 8.35 ± 0.57 | 8.51 ± 0.58 | 8.7 ± 0.59 | 8.81 ± 0.6 | 9.01 ± 0.61 | – | – |
| CCc1ccccc1 [ethylbenzene] + C[n+]1ccn(CCCO)c1.N#CN=C=[N-] | 14.6 ± 1 | 14.9 ± 1 | 15.3 ± 1 | 15.5 ± 1.1 | 15.9 ± 1.1 | 16.1 ± 1.1 | – | – |
| CC#N [acetonitrile] + C[N+]1(CCCO)CCOCC1.N#C[N-]C#N | 1.25 ± 0.08 | 1.29 ± 0.08 | 1.33 ± 0.09 | 1.37 ± 0.09 | 1.4 ± 0.09 | 1.45 ± 0.1 | – | – |
| CCC(=O)CC [pentan-3-one] + C[N+]1(CCCO)CCOCC1.N#C[N-]C#N | 8.09 ± 0.55 | 8.2 ± 0.56 | 8.38 ± 0.57 | 8.52 ± 0.58 | 8.61 ± 0.59 | 8.75 ± 0.6 | – | – |
| CCC(C)(C)OC [2-methoxy-2-methylbutane] + C[N+]1(CCCO)CCOCC1.N#C[N-]C#N | 90.2 ± 6.2 | 84.1 ± 5.8 | 78.6 ± 5.4 | 74 ± 5.1 | 69.9 ± 4.8 | 66 ± 5 | – | 97.2 ± 6.7 |
| C=COC(C)=O [vinyl acetate] + C[N+]1(CCCO)CCOCC1.N#C[N-]C#N | 6.62 ± 0.45 | 6.72 ± 0.46 | 6.81 ± 0.46 | 6.89 ± 0.47 | 6.99 ± 0.48 | 7.08 ± 0.48 | – | – |
| C1CCOC1 [tetrahydrofuran] + C[N+]1(CCCO)CCOCC1.N#C[N-]C#N | 4.57 ± 0.31 | 4.61 ± 0.31 | 4.67 ± 0.32 | 4.72 ± 0.32 | 4.78 ± 0.33 | 4.83 ± 0.33 | – | – |
| C#CCCCCC [1-heptyne] + C[n+]1ccn(CCCO)c1.N#CN=C=[N-] | 34.6 ± 2.4 | 34.6 ± 2.4 | 35.1 ± 2.4 | 35.3 ± 2.4 | 35.3 ± 2.4 | – | 34 ± 2.3 | 34.3 ± 2.3 |
